Literature values as cited in publication PMC8869242 (Biomedicines, 2022).
Read-outs that look alike come from different tables or passages of the source.

What was measured:
[1] = tested on: Ehrlich ascites carcinoma (EAC); conditions: cited from earlier work; for mice died during treatment: two injections per week for 2 weeks
CAM = tested on: CAM; parameters: method as in PMID 34339726; conditions: concentration of 5 mg/mL; cited from earlier work
[2] = tested on: endothelial cells (HUVEC); parameters: method as in PMID 34339726; conditions: cited from earlier work

## O.O.O.O.O=C1[N-]S(=O)(=O)c2ccccc21.O=C1c2ccccc2S(=O)(=O)[N]1[Pd+].c1ccc(-c2cccc(-c3ccccn3)n2)nc1 [[Pd(sac)(terpy)](sac)·4H2O]
[1]; i.p. 2 mg/kg, two injections per week for 2 weeks (cumulative 8 mg/kg)
  tumor volume reduction: 67.5%
[1]; i.p. 2 mg/kg
  mice died during treatment: 1 of 10

## O.O.O=C1[N-]S(=O)(=O)c2ccccc21.[Cl][Pd+].c1ccc(-c2cccc(-c3ccccn3)n2)nc1 [[PdCl(terpy)](sac)·2H2O]
[1]; 3 mg/kg, two injections per week for 2 weeks (cumulative 12 mg/kg)
  tumor volume reduction: 69.8%
[1]; 3 mg/kg
  mice died during treatment: 1 of 9
CAM
  angiogenesis in CAM assay: inhibition of angiogenesis
[2]
  concentration range showing inhibition of migration of endothelial cells (HUVEC): 12.5 to 50 µM
